As a reminder, the pIC50 is the IC50 on a negative log10 scale, so that one unit is a factor of ten. Higher therefore signals a low IC50.

Structures are written as SMILES. pIC50: −log10 of the molar value. Bounds are passed on as bounds.

The target of one assay is KRAS G12C (Homo sapiens (Human), UniProt P01116, C118A/G12C). The experiment in a line: 2 h coupled exchange assay. It counts as biochemical. The settings on record: Avg 2 h Coupled exchange IC50, 2 h compound pre-incubation. Here is the method: The term “2 h coupled exchange assay” or “20 h coupled exchange assay” as used herein refers to the assay described in the Section entitled “BIOLOGICAL EVALUATION.”
Chain of KRAS G12C (P01116 other isoform, or with tags, fused parts or gaps G12C/C118A): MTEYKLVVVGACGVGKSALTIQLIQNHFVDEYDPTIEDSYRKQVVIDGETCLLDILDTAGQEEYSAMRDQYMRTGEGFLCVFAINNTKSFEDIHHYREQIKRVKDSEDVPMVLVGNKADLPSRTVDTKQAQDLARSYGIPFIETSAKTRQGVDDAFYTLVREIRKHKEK

Assay [1] deals with MIA PaCa-2 (human pancreatic carcinoma) cells. The experiment in a line: Cell Viability Assay (CellTiter-Glo), MIA PaCa-2. It is filed as cell-based. How it is done: Serially-diluted compound or DMSO was added to the cells, and plates were incubated at 37° C., 5% CO2 for 72 h. Cell viability was measured using a CellTiter-Glo® Luminescent Cell Viability Assay kit (Promega) according to the manufacturer's protocol. The luminescence signal of treated samples was normalized to DMSO control, and data were analyzed using a 4-parameter logistic model to calculate IC50 values.

In assay [2] the test system is A549 (human lung carcinoma) cells. As to the kind of experiment: Cell Viability Assay (CellTiter-Glo), A549. It counts as cell-based. Particulars: Homo sapiens, A549, 72 h. The method, boiled down:
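Luminescent ATP read-out (CellTiter-Glo) after 72 h compound treatment of cells seeded overnight at 1.67E+04 cells/mL in RPMI 1640, 10% FBS; signal relative to DMSO, IC50 by 4-parameter logistic model.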
A general note: In ATP-based viability assays light output follows the ATP content of the culture.

In the case of `C=CC(=O)N1CC2(CCN(c3nc4c(c(-c5ncccc5C)c3C#N)COC(c3scnc3C)C4)C2)C1` [Example 23-14, (7R)-4-(3-methyl-2-pyridinyl)-7-(4-methyl-1,3-thiazol-5-yl)-2-(2-(2-propenoyl)-2,6-diazaspiro[3.4]octan-6-yl)-7,8-dihydro-5H-pyrano[4,3-b]pyridine-3-carbonitrile (7S)-4-(3-methyl-2-pyridinyl)-7-(4-methyl-1,3-thiazol-5-yl)-2-(2-(2-propenoyl)-2,6-diazaspiro[3.4]octan-6-yl)-7,8-dihydro-5H-pyrano[4,3-b]pyridine-3-carbonitrile], the pIC50 is 6.10 against KRAS G12C; 5.88 in assay [1] (Homo sapiens, MIA PaCa-2, 72 h); less than 4.60 in assay [2].

Take `C=CC(=O)N1CC2(CCN(c3nc4c(c(-c5ccccc5Cl)c3C#N)COC(c3scnc3C)C4)C2)C1` [Example 23-15, (7R)-4-(2-chlorophenyl)-7-(4-methyl-1,3-thiazol-5-yl)-2-(2-(2-propenoyl)-2,6-diazaspiro[3.4]octan-6-yl)-7,8-dihydro-5H-pyrano[4,3-b]pyridine-3-carbonitrile (7S)-4-(2-chlorophenyl)-7-(4-methyl-1,3-thiazol-5-yl)-2-(2-(2-propenoyl)-2,6-diazaspiro[3.4]octan-6-yl)-7,8-dihydro-5H-pyrano[4,3-b]pyridine-3-carbonitrile]: the negative logarithm of the IC50 (pIC50) was 6.71 against KRAS G12C; 6.01 in assay [1] (Homo sapiens, MIA PaCa-2, 72 h); less than 5.30 in assay [2].

On to `C=CC(=O)N1CC2(CCN(c3nc4c(c(-c5ccc(F)cc5F)c3C#N)COC(c3scnc3C)C4)C2)C1` [Example 23-17, (7R)-4-(2,4-difluorophenyl)-7-(4-methyl-1,3-thiazol-5-yl)-2-(2-(2-propenoyl)-2,6-diazaspiro[3.4]octan-6-yl)-7,8-dihydro-5H-pyrano[4,3-b]pyridine-3-carbonitrile (7S)-4-(2,4-difluorophenyl)-7-(4-methyl-1,3-thiazol-5-yl)-2-(2-(2-propenoyl)-2,6-diazaspiro[3.4]octan-6-yl)-7,8-dihydro-5H-pyrano[4,3-b]pyridine-3-carbonitrile], for which the negative-log IC50 (pIC50) at KRAS G12C is 7.01; in assay [1] (Homo sapiens, MIA PaCa-2, 72 h), 6.15; in assay [2], less than 5.30.

For the compound `C=CC(=O)N1CC2(CCN(c3nc4c(c(-c5ccc(F)cc5Cl)c3C#N)CCC(c3scnc3C)=C4)C2)C1` [Example 23-18, 4-(2-chloro-4-fluorophenyl)-7-(4-methyl-1,3-thiazol-5-yl)-2-(2-(2-propenoyl)-2,6-diazaspiro[3.4]octan-6-yl)-5,6-dihydro-3-quinolinecarbonitrile], the results for the negative logarithm of the IC50 (pIC50) (against KRAS G12C; in assay [1] (72 h); in assay [2]) were 6.98, 6.23 and 5.54, respectively.

In the case of `C=CC(=O)N1CC2(CCN(c3nc4c(c(-c5ccccc5Cl)c3C#N)CCC(c3scnc3C)=C4)C2)C1` [Example 23-19, 4-(2-chlorophenyl)-7-(4-methyl-1,3-thiazol-5-yl)-2-(2-(2-propenoyl)-2,6-diazaspiro[3.4]octan-6-yl)-5,6-dihydro-3-quinolinecarbonitrile], the negative logarithm of the IC50 (pIC50) at KRAS G12C is 7.06; in assay [1] (Homo sapiens, MIA PaCa-2, 72 h), 6.27; in assay [2] it was 5.48.

With `C=CC(=O)N1CC2(CCN(c3nc4c(c(-c5ccc(F)cc5Cl)c3C#N)COC(c3scnc3C)C4)C2)C1` [Example 23-20, (7R)-4-(2-chloro-4-fluorophenyl)-7-(4-methyl-1,3-thiazol-5-yl)-2-(2-(2-propenoyl)-2,6-diazaspiro[3.4]octan-6-yl)-7,8-dihydro-5H-pyrano[4,3-b]pyridine-3-carbonitrile (7S)-4-(2-chloro-4-fluorophenyl)-7-(4-methyl-1,3-thiazol-5-yl)-2-(2-(2-propenoyl)-2,6-diazaspiro[3.4]octan-6-yl)-7,8-dihydro-5H-pyrano[4,3-b]pyridine-3-carbonitrile], the pIC50 is 6.64 against KRAS G12C; 5.94 in assay [1] (Homo sapiens, MIA PaCa-2, 72 h); 5.08 in assay [2].

As for `C=CC(=O)N1CC2(CCN(c3nc4c(c(-c5ccc(F)cc5F)c3C#N)CCC(c3scnc3C)=C4)C2)C1` [Example 23-21, 4-(2,4-difluorophenyl)-7-(4-methyl-1,3-thiazol-5-yl)-2-(2-(2-propenoyl)-2,6-diazaspiro[3.4]octan-6-yl)-5,6-dihydro-3-quinolinecarbonitrile], the negative logarithm of the IC50 (pIC50) was 7.13 on KRAS G12C; 6.15 in assay [1] (Homo sapiens, MIA PaCa-2, 72 h); 5.42 in assay [2].

In the case of `C=CC(=O)N1CC2(CCN(c3nc4c(c(-c5c(F)cccc5Cl)c3C#N)CCC(c3scnc3C)=C4)C2)C1` [Example 23-22, 4-(2-chloro-6-fluorophenyl)-7-(4-methyl-1,3-thiazol-5-yl)-2-(2-(2-propenoyl)-2,6-diazaspiro[3.4]octan-6-yl)-5,6-dihydro-3-quinolinecarbonitrile], the pIC50 is 6.74 at KRAS G12C; 6.14 in assay [1] (Homo sapiens, MIA PaCa-2, 72 h); less than 5.30 in assay [2].

Turning to `C=CC(=O)N1CC2(CCN(c3nc4c(c(-c5ccc(F)cc5Cl)c3C#N)CO[C@@H](c3scnc3C)C4)C2)C1` [Example 23-27, (7R)-4-(2-chloro-4-fluorophenyl)-7-(4-methyl-1,3-thiazol-5-yl)-2-(2-(2-propenoyl)-2,6-diazaspiro[3.4]octan-6-yl)-7,8-dihydro-5H-pyrano[4,3-b]pyridine-3-carbonitrile], the pIC50 at KRAS G12C is 7.01; in assay [1] (Homo sapiens, MIA PaCa-2, 72 h), 6.11; in assay [2] it was less than 5.30.

For `C=CC(=O)N1CC2(CCN(c3nc4c(c(-c5ccc(F)cc5Cl)c3C#N)CO[C@H](c3scnc3C)C4)C2)C1` [Example 23-28, (7S)-4-(2-chloro-4-fluorophenyl)-7-(4-methyl-1,3-thiazol-5-yl)-2-(2-(2-propenoyl)-2,6-diazaspiro[3.4]octan-6-yl)-7,8-dihydro-5H-pyrano[4,3-b]pyridine-3-carbonitrile], the pIC50 on KRAS G12C was 6.38; in assay [1] (Homo sapiens, MIA PaCa-2, 72 h), 5.85; in assay [2], 5.25.

In the case of `C=CC(=O)N1CC2(CCN(c3nc4c(c(-c5c(O)cccc5F)c3C#N)CCC(c3scnc3C)=C4)C2)C1` [Example 23-29, 4-(2-fluoro-6-hydroxyphenyl)-7-(4-methyl-1,3-thiazol-5-yl)-2-(2-(2-propenoyl)-2,6-diazaspiro[3.4]octan-6-yl)-5,6-dihydro-3-quinolinecarbonitrile], the negative logarithm of the IC50 (pIC50) is 7.32 against KRAS G12C; 5.88 in assay [1] (Homo sapiens, MIA PaCa-2, 72 h); less than 5.30 in assay [2].

On to `C=CC(=O)N1CC2(CCN(c3nc4c(c(-c5ccc(F)cc5)c3C#N)CCC(c3scnc3C)=C4)C2)C1` [Example 23-30, 4-(4-fluorophenyl)-7-(4-methyl-1,3-thiazol-5-yl)-2-(2-(2-propenoyl)-2,6-diazaspiro[3.4]octan-6-yl)-5,6-dihydro-3-quinolinecarbonitrile], for which the pIC50 on KRAS G12C was 6.88; in assay [1] (Homo sapiens, MIA PaCa-2, 72 h) it was 5.71; in assay [2] it was 5.08.

In the case of `C=CC(=O)N1CC2(CCN(c3nc4c(c(-c5cc(OC)ccc5Cl)c3C#N)CCC(c3scnc3C)=C4)C2)C1` [Example 23-31, 4-(2-chloro-5-methoxyphenyl)-7-(4-methyl-1,3-thiazol-5-yl)-2-(2-(2-propenoyl)-2,6-diazaspiro[3.4]octan-6-yl)-5,6-dihydro-3-quinolinecarbonitrile], the pIC50 at KRAS G12C was 6.77; in assay [1] (Homo sapiens, MIA PaCa-2, 72 h), 5.65; in assay [2], 5.17.

In the case of `C=CC(=O)N1CC2(CCN(c3nc4c(c(-c5c(O)cccc5Cl)c3C#N)CCC(c3scnc3C)=C4)C2)C1` [Example 23-34, 4-(2-chloro-6-hydroxyphenyl)-7-(4-methyl-1,3-thiazol-5-yl)-2-(2-(2-propenoyl)-2,6-diazaspiro[3.4]octan-6-yl)-5,6-dihydro-3-quinolinecarbonitrile], the pIC50 at KRAS G12C was 7.01; in assay [1] (Homo sapiens, MIA PaCa-2, 72 h) it was 5.96; in assay [2], less than 5.30.

With `C=CC(=O)N1CC2(CCN(c3nc4c(c(-c5c(O)cccc5Cl)c3C#N)COC(c3scnc3C)C4)C2)C1` [Example 23-35, (7R)-4-(2-chloro-6-hydroxyphenyl)-7-(4-methyl-1,3-thiazol-5-yl)-2-(2-(2-propenoyl)-2,6-diazaspiro[3.4]octan-6-yl)-7,8-dihydro-5H-pyrano[4,3-b]pyridine-3-carbonitrile (7S)-4-(2-chloro-6-hydroxyphenyl)-7-(4-methyl-1,3-thiazol-5-yl)-2-(2-(2-propenoyl)-2,6-diazaspiro[3.4]octan-6-yl)-7,8-dihydro-5H-pyrano[4,3-b]pyridine-3-carbonitrile], the pIC50 on KRAS G12C was 6.08; in assay [1] (Homo sapiens, MIA PaCa-2, 72 h) it was 5.62; in assay [2], 4.68.

For `C=CC(=O)N1CC2(CCN(c3nc4c(c(-c5c(F)cccc5Cl)c3C#N)COC(c3scnc3C)C4)C2)C1` [Example 23-36, (7R)-4-(2-chloro-6-fluorophenyl)-7-(4-methyl-1,3-thiazol-5-yl)-2-(2-(2-propenoyl)-2,6-diazaspiro[3.4]octan-6-yl)-7,8-dihydro-5H-pyrano[4,3-b]pyridine-3-carbonitrile (7S)-4-(2-chloro-6-fluorophenyl)-7-(4-methyl-1,3-thiazol-5-yl)-2-(2-(2-propenoyl)-2,6-diazaspiro[3.4]octan-6-yl)-7,8-dihydro-5H-pyrano[4,3-b]pyridine-3-carbonitrile], the pIC50 on KRAS G12C is 6.57; in assay [1] (Homo sapiens, MIA PaCa-2, 72 h) it was 5.82; in assay [2], 5.03.

For the compound `C=CC(=O)N1CC2(CCN(c3nc4c(c(-c5ccccc5F)c3C#N)CCC3(c5scnc5C)C4C3(F)F)C2)C1` (stereo not drawn) [Example 23-37], the negative-log IC50 (pIC50) on KRAS G12C is 6.75; in assay [1] (Homo sapiens, MIA PaCa-2, 72 h), 5.51; in assay [2] it was 4.84.

Values taken from US20240059703A1 (AMGEN INC., priority 2021, published 2024).
